Measured values as given in patent publication US20050208496A1, “Methods of testing for bronchial asthma or chronic obstructive pulmonary disease” (Genox Research, Inc., priority 2002, published 2005).
Read-outs that look alike come from different tables or passages of the source.

Tested on: respiratory epithelial cells
Details: IL-13 vs no stimulation

IL-13: human IL-13 (Peprotech, Inc.) added to the medium at 50 ng/mL to stimulate respiratory epithelial cells
BENE (33331_at) expression change (lot 1 Day 3 IMM): −2.8 | CRA (1230_g_at) expression change (lot 1 Day 3 IMM): −2.3 | CTSL2 (40717_at) expression change (lot 1 Day 3 IMM): −2.2 | DUSP1 (1005_at) expression change (lot 1 Day 3 IMM): −2.4 | IGFBP3 (37319_at) expression change (lot 1 Day 3 IMM): −2 | IGFBP6 (1736_at) expression change (lot 1 Day 3 IMM): −2.8 | MMP9 (31859_at) expression change (lot 1 Day 3 IMM): −7.3 | MMP10 (1006_at) expression change (lot 1 Day 3 IMM): −3.4 | MSMB (32149_at) expression change (lot 1 Day 3 IMM): −3.7 | NDRG1 (36933_at) expression change (lot 1 Day 3 IMM): −2.3 | NOTCH3 (38750_at) expression change (lot 1 Day 3 IMM): −3.5 | PFTK1 (36502_at) expression change (lot 1 Day 3 IMM): −2.6 | PSCA (33792_at) expression change (lot 1 Day 3 IMM): −3.9 | SERPINA3 (33825_at) expression change (lot 1 Day 3 IMM): −3.8 | SERPINE1 (672_at) expression change (lot 1 Day 3 IMM): −7.7 | SERPINE1 (38125_at) expression change (lot 1 Day 3 IMM): −4.2 | TSPAN-5 (40990_at) expression change (lot 1 Day 3 IMM): −2.8 | AGR2 (38827_at) expression change (lot 1 Day 7 AI): −2.7 | AKR1B10 (37482_at) expression change (lot 1 Day 7 AI): −7.5 | AKR1C3 (37399_at) expression change (lot 1 Day 7 AI): −4 | ANXA10 (32349_at) expression change (lot 1 Day 7 AI): −2.5 | APM2 (32527_at) expression change (lot 1 Day 7 AI): −3.8 | AREG (34898_at) expression change (lot 1 Day 7 AI): −4.8 | BCAS1 (37821_at) expression change (lot 1 Day 7 AI): −3.7 | BENE (33331_at) expression change (lot 1 Day 7 AI): −7.3 | C4.4A (41641_at) expression change (lot 1 Day 7 AI): −2.5 | CRA (1230_g_at) expression change (lot 1 Day 7 AI): −2 | DEFB2 (32464_at) expression change (lot 1 Day 7 AI): −4.3 | ECM1 (37600_at) expression change (lot 1 Day 7 AI): −4.7 | EPHA1 (1108_s_at) expression change (lot 1 Day 7 AI): −3.2 | ETFB (36881_at) expression change (lot 1 Day 7 AI): −2 | FABP5 (39799_at) expression change (lot 1 Day 7 AI): −4.2 | GABRE (34280_at) expression change (lot 1 Day 7 AI): −2 | GPNMB (38379_at) expression change (lot 1 Day 7 AI): 3.6 | HLA-DPB1 (38095_i_at) expression change (lot 1 Day 7 AI): −4.4 | HLA-DPB1 (38096_f_at) expression change (lot 1 Day 7 AI): −2.6 | IGFBP3 (1586_at) expression change (lot 1 Day 7 AI): −2.4 | IGFBP3 (37319_at) expression change (lot 1 Day 7 AI): −2.7 | IGFBP6 (1736_at) expression change (lot 1 Day 7 AI): −7.7 | IMPA2 (36496_at) expression change (lot 1 Day 7 AI): −2 | MMP9 (31859_at) expression change (lot 1 Day 7 AI): −10.9 | MN1 (37283_at) expression change (lot 1 Day 7 AI): −3.2 | MSMB (32149_at) expression change (lot 1 Day 7 AI): −11.7 | NCALD (38803_at) expression change (lot 1 Day 7 AI): −2.8 | NDRG1 (36933_at) expression change (lot 1 Day 7 AI): −3.6 | NOTCH3 (38750_at) expression change (lot 1 Day 7 AI): −4.6 | PSCA (33792_at) expression change (lot 1 Day 7 AI): −5.8 | PTK2B (33804_at) expression change (lot 1 Day 7 AI): −6.4 | PTPRZ1 (1364_at) expression change (lot 1 Day 7 AI): −3.7 | RARRES1 (33505_at) expression change (lot 1 Day 7 AI): −3.3 | RDC1 (34288_at) expression change (lot 1 Day 7 AI): −5.3 | RTP801 (39827_at) expression change (lot 1 Day 7 AI): −2 | S100A8 (41096_at) expression change (lot 1 Day 7 AI): −6.2 | SERPINA3 (33825_at) expression change (lot 1 Day 7 AI): −14.1 | SERPINB1 (33305_at) expression change (lot 1 Day 7 AI): −2.3 | SERPINB5 (862_at) expression change (lot 1 Day 7 AI): −2.2 | SERPINE1 (672_at) expression change (lot 1 Day 7 AI): −7.8 | SERPINE1 (38125_at) expression change (lot 1 Day 7 AI): −18.3 | STK39 (39120_at) expression change (lot 1 Day 7 AI): −2.9 | TSPAN-5 (40990_at) expression change (lot 1 Day 7 AI): −3.6 | VRP (38223_at) expression change (lot 1 Day 7 AI): −2.5 | c-fos (1916_s_at) expression change (lot 1 Day 7 AI): −2.6 | AKR1B10 (37482_at) expression change (lot 1 Day 7 IMM): −6.7 | AKR1C3 (37399_at) expression change (lot 1 Day 7 IMM): −2.3 | APM2 (32527_at) expression change (lot 1 Day 7 IMM): −6.2 | AREG (34898_at) expression change (lot 1 Day 7 IMM): −5.2 | BENE (33331_at) expression change (lot 1 Day 7 IMM): −4.7 | ECM1 (37600_at) expression change (lot 1 Day 7 IMM): −18.4 | FABP5 (39799_at) expression change (lot 1 Day 7 IMM): −3.7 | GPNMB (38379_at) expression change (lot 1 Day 7 IMM): 4.9 | IGFBP3 (1586_at) expression change (lot 1 Day 7 IMM): −3.1 | IGFBP3 (37319_at) expression change (lot 1 Day 7 IMM): −3.1 | IGFBP6 (1736_at) expression change (lot 1 Day 7 IMM): −5.4 | MMP9 (31859_at) expression change (lot 1 Day 7 IMM): −16 | NDRG1 (36933_at) expression change (lot 1 Day 7 IMM): −2.4 | NOTCH3 (38750_at) expression change (lot 1 Day 7 IMM): −2.7 | PFTK1 (36502_at) expression change (lot 1 Day 7 IMM): −3.2 | PTK2B (33804_at) expression change (lot 1 Day 7 IMM): −4.1 | RARRES1 (1042_at) expression change (lot 1 Day 7 IMM): −3.5 | RARRES1 (33505_at) expression change (lot 1 Day 7 IMM): −2.7 | RDC1 (34288_at) expression change (lot 1 Day 7 IMM): −2.2 | SEC14L2 (32817_at) expression change (lot 1 Day 7 IMM): −2.9 | SERPINA3 (33825_at) expression change (lot 1 Day 7 IMM): −5.9 | SERPINB1 (33305_at) expression change (lot 1 Day 7 IMM): −2.1 | SERPINB5 (862_at) expression change (lot 1 Day 7 IMM): −2.5 | SERPINE1 (672_at) expression change (lot 1 Day 7 IMM): −31.3 | SERPINE1 (38125_at) expression change (lot 1 Day 7 IMM): −20.1 | STK39 (39120_at) expression change (lot 1 Day 7 IMM): −2 | TSPAN-5 (40990_at) expression change (lot 1 Day 7 IMM): −2.8 | c-fos (1915_s_at) expression change (lot 1 Day 7 IMM): −4.3 | c-fos (1916_s_at) expression change (lot 1 Day 7 IMM): −4.7 | AKR1B10 (37482_at) expression change (lot 2 Day 3 AI): −7.1 | AKR1C3 (37399_at) expression change (lot 2 Day 3 AI): −2.6 | ANXA10 (32349_at) expression change (lot 2 Day 3 AI): −7.5 | APM2 (32527_at) expression change (lot 2 Day 3 AI): −2.7 | AREG (34898_at) expression change (lot 2 Day 3 AI): −14.6 | BCAS1 (37821_at) expression change (lot 2 Day 3 AI): −4.6 | BDKRB2 (39310_at) expression change (lot 2 Day 3 AI): −2.4 | BENE (33331_at) expression change (lot 2 Day 3 AI): −4.8 | CRA (1230_g_at) expression change (lot 2 Day 3 AI): −3.4 | CTSL2 (40717_at) expression change (lot 2 Day 3 AI): −3.2 | DUSP1 (1005_at) expression change (lot 2 Day 3 AI): −4.3 | EPHA1 (1108_s_at) expression change (lot 2 Day 3 AI): −2.8 | FABP5 (39799_at) expression change (lot 2 Day 3 AI): −3 | GPNMB (38379_at) expression change (lot 2 Day 3 AI): −2.2 | IGFBP3 (1586_at) expression change (lot 2 Day 3 AI): −2.9 | IGFBP3 (37319_at) expression change (lot 2 Day 3 AI): −3
